Assay results from US20180289655A1, “Methods and Compositions for the Intravenous Administration of Fumarates for the Treatment of Neurological Diseases” (Biogen MA Inc., priority 2015, published 2018).
Entries after “also recorded” stand apart in the source; their conditions may differ. Where a name gives a salt, the structure may show the parent alone.

Experiments:
[1] = test system: prototypical Nrf2 response genes (Akr1b8, Gclc, Hmox1, Nqo1, Txnrd1, Osgin1); test: qRT-PCR of Nrf2 response genes in tissues after DMF PO or IV; format: in vivo, Sprague-Dawley rats; settings: for Nrf2 genes significantly modulated, forebrain / Nrf2 genes significantly modulated, jejunum / Nrf2 genes significantly modulated, kidney / Nrf2 genes significantly modulated, cerebellum / Nrf2 genes significantly modulated, spleen: 2 and 6 hours, vs vehicle
Description: On Day 5 of the study 3 time points were evaluated: 10 minutes, 2 hours, and 6 hours after dosing, as illustrated in the timeline. At each time point, 5 animals from each group were sacrificed. At the 2 and 6 hour time points, the tissue samples from groups E, F, I, and J from each animal were split, with half of the tissue being processed for MMF exposure, and half processed for qRT-PCR. Note vehicle groups (C, D, G, and H) were not processed for MMF measurement and only used for qRT-PCR.
Two and 6 hours after dosing, cohorts of animals from Groups C, D, E and F and G, H, I and J, respectively, were sacrificed and tissues (forebrain, cerebellum, jejunum, kidney, and spleen) were collected for RNA analysis by qRT-PCR for expression of prototypical Nrf2 response genes.
For RNA preparation, frozen tissues were placed in 2 mL RNAse-free 96-well blocks with 1.5 mL QIAzol Lysis Reagent (QIAgen) and a 3.2 mm stainless steel bead (BioSpec Products, Bartlesville, Okla.). Tissues were disrupted for four cycles of 45 seconds in a Mini-Beadbeater (Biospec Products). RNA was extracted in chloroform and the aqueous phase was mixed with an equal volume of 70% ethanol. Extracted RNA was applied to RNeasy 96 plates and purified by the spin method according to the manufacturer's protocol (RNeasy 96 Universal Tissue Protocol, QIAgen, Hilden Germany).
Samples were reverse-transcribed into cDNA according to the manufacturer's protocols (Life Technologies, Carlsbad, Calif.) and analyzed by real-time polymerase chain reaction (qPCR). Rat target gene primers and 6-FAM™ dye-labeled TaqMan® MGB™ probes (Life Technologies) were used. Reactions containing 100 ng of cDNA, 900 nM of each primer, and 250 nM TaqMan probes were cycled on a QuantStudio 12 k-flex system (Life Technologies) once for 10 minutes at 95° C., followed by 40 cycles of 95° C. for 10 seconds and 60° C. for 1 minute. All samples were measured in triplicate with Gapdh as a normalizing gene. Taqman primer/probe sets from Life Technologies included: Akr1b8 (Rn00756513_m1); Gclc (Rn00689046_m1); Hmox1 (Rn01536933_m1); Nqo1 (Rn00566528_m1); Txnrd1 (Rn01503798_m1); Osgin1 (Rn00593303_m1) and Gapdh (Rn01775763_g1). Final analysis was performed using the comparative CT method to calculate fold changes and samples were normalized relative to vehicle controls at each time point. In all graphs, the mean fold-change (±standard deviation) is depicted.

[2] = Tail histopathology after 5 days of once daily DMF IV tail vein dosing; format: in vivo, Sprague-Dawley rats; settings: 5 days of repeated once daily tail vein injections
[3] = test system: SOD1-G93A mice; test: SOD1-G93A mouse model of ALS, oral DMF; format: in vivo; settings: DMF p.o. 100 mg/kg daily
Description: Motor performance was assessed by rotarod at day 85, 100, and 115. Health was monitored by clinical observation and body weight. […] Body weight was modestly impacted by DMF.
Thirty-two female SOD1-G93A mice were purchased from Jackson Laboratories (Line 2726). All mice were transgene positive. Sixteen mice were used per dosing group. Dosing began at day 50-55. All procedures were conducted in accordance with the NIH Guide for the Care and Use of Laboratory Animals and were approved by the Biogen Idec Institutional Animal Care and Use Committee (IACUC Protocol No. 0408-2011).
Mice were dosed once daily either with vehicle or DMF. Dosing volume was 10 ml/kg, introduced by oral gavage.
Disease onset and progression in the SOD1-G93A was monitored by three approaches. All approaches were done in a blinded fashion. Body weight was recorded on a daily basis. Mice were also inspected on a daily basis for disease onset, as defined by leg tremor or decreased hind limb flexion upon tail lift. Mice were also assessed on an accelerating rotarod test at weeks 12, 14, and 16. For this test, mice were first acclimated to a rod rotating at 2 rpm for 300 seconds once a day for two days. For the actual test, mice are placed on rod accelerating from 2 to 40 rpm over 90 seconds. Upon reaching full speed, the test continues for an additional 30 seconds. Mice were tested three times per day and the longest time recorded. Mice that were unable to remain on the rod for 20 seconds were excluded from further testing.
Mice were determined to have reached endpoint criteria for humane euthanasia when then when they failure to right from either side within 15 seconds.
For rotarod and body weight, values were compared by two-way ANOVA. Body weight was further evaluated by break point analysis. Break point analysis identifies the inflection point of a curve, by completing a series of linear regression fits. The intersection of the curve fits for the ascending and descending slopes with the minimal residual error is defined as the break point. For each mouse, the breakpoint was determined. The two groups were then compared by Student's T-test. Differences in onset and survival were tested for using the Mantel-Cox log rank test. A further test with the Cox proportional hazards test incorporating littermate status was completed.

[4] = Chemical stability of DMF nano suspension (HPLC); format: physicochemical; settings: Day 1, room temperature
Description: 5.0 ml of pH5.0 phosphate buffer (Fisher Scientific, Lot No. 100498) were added to the tube. Further, ZrO2 beads (˜10 ml) were also added to the tube. The sample was vortexed in a Fisher Scientific multi-tube vortexer at 2500 rpm for 60 min and the particle size was checked via optical microscopic image. An additional 5.0 ml of pH5 phosphate buffer was added and the sample was further milled overnight. The temperature of the sample was ˜60° C. due to the overnight milling. The particle size was determined via microscopic image and Mastersizer 2000.
The suspension was stored at room temperature and samples were taken at day 1 and day 7. The stability of the samples was examined using HPLC method for chemical stability, PSD and microscopic image (data not provided) for physical stability.

Question: Which “Nrf2 genes significantly modulated, forebrain” value ([1]; DMF IV 30 mg/kg) does the source give for `COC(=O)/C=C/C(=O)OC` [DMF, dimethyl fumarate] here?
Answer: The value was “significant modulation of Nqo1, Osgin1, Akr1b8, and Hmox1 at both 2 and 6 hours”.

Question: And the “Nrf2 genes significantly modulated, jejunum” value ([1]; DMF IV 30 mg/kg)?
Answer: The value was “significant increases were observed for Nqo1 and Hmox1 at 6 hours, and in Osgin1 expression at 2 hours”.

Question: What about the “Nrf2 genes significantly modulated, kidney” value ([1]; DMF IV 30 mg/kg) of the same molecule?
Answer: The value was “significant modulation of Nqo1 and Txnrd1 at 2 and 6 hours, and Hmox1 only at 2 hours”.

Question: And the “Nrf2 genes significantly modulated, cerebellum” value ([1]; DMF IV 30 mg/kg, 30 mg/kg)?
Answer: The value was “significant modulation was observed for Nqo1, Osgin1, Akr1b8, and Hmox1 at both 2 and 6 hours; also recorded: significant increase in the transcriptional responses of Gclc and Txnrd1 in the cerebellum, but only at the later 6-hour time point”.

Question: And the “Nrf2 genes significantly modulated, spleen” value ([1]; DMF IV 30 mg/kg, 30 mg/kg)?
Answer: Its value is “significant transcriptional increases were noted for Osgin1 at both 2 and 6 hour time points; also recorded: significant changes in Akr1b8 and Txnrd1 were observed only at the 2 hour time point; also recorded: A significant change in Nqo1 was also found 6 hours after DMF IV dosing”.

Question: And the “Hmox1 expression in spleen” value ([1]; DMF PO 100 mg/kg or IV 30 mg/kg)?
Answer: Its value is “No changes were observed”.

Question: What about the “Nrf2 genes significantly modulated, cerebellum” value ([1]; DMF PO 100 mg/kg) of the same molecule?
Answer: Its value is “significant modulation of 3 genes in cerebellar tissue: Osgin1 at 2 and 6 hours, Akr1b8 at 2 hours, and Hmox1 at the 6 hour time point”.

Question: And the “Nrf2 genes significantly modulated, forebrain” value ([1]; DMF PO 100 mg/kg)?
Answer: The value was “modulation of only two genes: Osgin1 at 2 and 6 hours and Akr1b8 only at 2 hours”.

Question: And the “Nrf2 genes significantly modulated, spleen” value ([1]; DMF PO 100 mg/kg)?
Answer: Its value is “significant increases in Nqo1, Osgin1, Akr1b8, Gclc, and Txnrd1 at both 2 and 6 hours”.

Question: What about the “Nrf2 genes significantly modulated, jejunum” value ([1]; DMF PO 100 mg/kg, 100 mg/kg) of the same molecule?
Answer: Its value is “significant increases in Osgin1, Akr1b8, and Txnrd1 at both 2 and 6 hours; also recorded: Nqo1 expression was increased after PO DMF dosing only at the 6-hour time point; also recorded: significant increases in Gclc and Hmox1 were observed at the 2-hour time point”.

Question: What about the “Nrf2 genes significantly modulated, kidney” value ([1]; DMF PO 100 mg/kg, 100 mg/kg) of the same molecule?
Answer: The value was “significant changes at both 2 and 6 hour time points for Nqo1, Hmox1, and Txnrd1; also recorded: Osgin1 was significantly modulated only at the 2 hour time point”.

Question: And the “Relationship of MMF exposure (10 minutes) and pharmacodynamic response (2 or 6 hours)” value ([1]; forebrain, kidney and spleen, PO 100 mg/kg and IV 30 mg/kg)?
Answer: The value was “clear positive correlation in MMF exposure and pharmacodynamic response”.

Question: And the “Histopathology findings in the tail” value [2]?
Answer: The value was “no treatment-related histopathology findings in the tail”.

Question: And the “Disease onset as assessed by limb splay” value [3]?
Answer: Its value is “did not significantly change onset”.

Question: What about the Survival [3] of the same molecule?
Answer: The Survival was “did not prolong survival”.

Question: And the “Transition from weight gain to weight loss (breakpoint analysis)” value ([3]; p<0.05)?
Answer: The value was “significantly delayed”.

Question: And the Rotarod performance ([3]; weeks 12, 14, 16)?
Answer: The Rotarod performance was “did not alter rotarod performance”.

Question: What about the “Area % of DMF remaining” value [4] of the same molecule?
Answer: Its value is 99.9 area %.
